Measurements as given in patent publication US20260176289A1, “SMALL MOLECULE INHIBITORS OF KRAS PROTEINS” (Merck Sharp & Dohme LLC, priority 2022, published 2026).

Assays:
MKN-1 cells = experiment: Cellular phospho-ERK assay, MKN-1 cells (amplified wild-type KRAS); type: cell-based; conditions: Homo sapiens, amplified wild-type KRAS, 2 hours, read-out: MKN1 pERK IC50
In short: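 Overnight-plated cells on collagen received test compound (up to 30 μM final, threefold steps, ten concentrations) for two hours. After lysis at room temperature, phosphorylated and total ERK were quantified together by Alpha SureFire, and IC50 is based on the phospho-to-total signal ratio.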

KRAS-G12V = KRAS-G12V (Homo sapiens, UniProt P01116, G12V); experiment: SOS-catalyzed nucleotide exchange assay (Procedure A, TR-FRET), KRAS-G12V; type: biochemical; conditions: nucleotide exchange, read-out: KRAS G12V GNE IC50
Chain of KRAS-G12V (P01116 with tags, fused parts or gaps isoform P01116-2 G12V): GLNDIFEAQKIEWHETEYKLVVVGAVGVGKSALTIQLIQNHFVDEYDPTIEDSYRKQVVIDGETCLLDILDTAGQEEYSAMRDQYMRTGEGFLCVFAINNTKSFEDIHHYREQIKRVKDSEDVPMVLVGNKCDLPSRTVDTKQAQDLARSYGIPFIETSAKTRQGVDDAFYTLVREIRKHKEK
In short: (§1)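 TR-FRET readout (520/495 nm) of SOS-driven exchange of Bodipy-GDP for unlabeled GTP (3 mM) on biotinylated, Tb-streptavidin-bound RAS, after 60 min compound preincubation at room temperature. Exchange times and RAS/SOS levels: 60 min for WT (1/40 nM), G12C triple mutant (3/40 nM), NRAS (1.25/40 nM); 90 min for G12V (1.25/160 nM). Four-parameter logistic fits on normalized effect.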

KRAS-WT = KRAS-WT (Homo sapiens, UniProt P01116); experiment: SOS-catalyzed nucleotide exchange assay (Procedure A, TR-FRET), KRAS-WT; type: biochemical; conditions: nucleotide exchange, read-out: KRAS WT GNE IC50
Chain of KRAS-WT (P01116 with tags, fused parts or gaps isoform P01116-2): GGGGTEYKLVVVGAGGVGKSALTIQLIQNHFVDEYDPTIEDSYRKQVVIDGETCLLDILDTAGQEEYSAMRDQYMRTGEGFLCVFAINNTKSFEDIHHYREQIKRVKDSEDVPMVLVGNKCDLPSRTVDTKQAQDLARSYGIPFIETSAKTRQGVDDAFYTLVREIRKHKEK
In short: as §1

`C#Cc1c(F)ccc2cc(O)cc(-c3nccc4c5c(N6CCOC[C@@](C)(O)C6)nc(OC[C@@]67CCCN6C[C@H](F)C7)nc5n(C)c34)c12` [Ex-18, (S)-4-(8-(8-ethynyl-7-fluoro-3-hydroxynaphthalen-1-yl)-2-(((2R,7aS)-2-fluorotetrahydro-1H-pyrrolizin-7a(5H)-yl)methoxy)-9-methyl-9H-pyrido[4′,3′:4,5]pyrrolo[2,3-d]pyrimidin-4-yl)-6-methyl-1,4-oxazepan-6-ol] showed an IC50 (MKN-1 cells) of 7.67 nM, an IC50 (KRAS-G12V) of 3.85 nM and an IC50 (KRAS-WT) of 1.46 nM.
